# Values of other authors in patent US6187343A, “Proceeding for the preparation of the prolonged action granule compound containing 4-nitro-2-phenoxymethanesulfonanilide” (priority 1997, dated 2001).
# Details: in vivo
compound,measurement,value
"CS(=O)(=O)Nc1ccc([N+](=O)[O-])cc1Oc1ccccc1 [NIMESULIDE, 4-nitro-2-phenoxymethanesulfonanilide]",adverse effects,adverse effects of the digestive type
